Test results from ChEMBL document CHEMBL1201862, “PubChem BioAssay data set” (2004).
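Method: 48-hour compound exposure of cells in 96-well plates, five concentrations, linear interpolation of endpoints. Here, GI50 denotes the concentration required for 50% inhibition of growth.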 The source made the active and inactive calls. No stated cut-off is given here; in the data, active = GI50 up to about 1.1 µM and inactive = higher.

Tests used:
Assay in all cases: NCI tumour cell line growth inhibition, 48 h
786-0 = test system: 786-0
A549 = test system: A549
ACHN = test system: ACHN
BT-549 = test system: BT-549
CAKI-1 = test system: CAKI-1
CCRF-CEM = test system: CCRF-CEM
COLO 205 = test system: COLO 205
DU-145 = test system: DU-145
EKVX = test system: EKVX
HCT-116 = test system: HCT-116
HCT-15 = test system: HCT-15
HL-60 = test system: HL-60
HOP-62 = test system: HOP-62
HT-29 = test system: HT-29
Hs-578T = test system: Hs-578T
IGROV-1 = test system: IGROV-1
K562 = test system: K562
KM12 = test system: KM12
LOX IMVI = test system: LOX IMVI
M14 = test system: M14
MCF7 = test system: MCF7
MDA-MB-231 = test system: MDA-MB-231
MDA-MB-435 = test system: MDA-MB-435
MDA-N = test system: MDA-N
MOLT-4 = test system: MOLT-4
Malme-3M = test system: Malme-3M
NCI-H23 = test system: NCI-H23
NCI-H460 = test system: NCI-H460
NCI-H522 = test system: NCI-H522
NCI/ADR-RES = test system: NCI/ADR-RES
OVCAR-3 = test system: OVCAR-3
OVCAR-4 = test system: OVCAR-4
OVCAR-5 = test system: OVCAR-5
OVCAR-8 = test system: OVCAR-8
PC-3 = test system: PC-3
RPMI-8226 = test system: RPMI-8226
SF-268 = test system: SF-268
SF-295 = test system: SF-295
SK-MEL-28 = test system: SK-MEL-28
SK-MEL-5 = test system: SK-MEL-5
SK-OV-3 = test system: SK-OV-3
SN12C = test system: SN12C
SNB-19 = test system: SNB-19
SR = test system: SR
T47D = test system: T47D
TK-10 = test system: TK-10
U-251 = test system: U-251
UACC-257 = test system: UACC-257
UACC-62 = test system: UACC-62
UO-31 = test system: UO-31
HCC 2998 = test system: HCC 2998
HOP-92 = test system: HOP-92
NCI-H226 = test system: NCI-H226
RXF 393 = test system: RXF 393
SF-539 = test system: SF-539
SK-MEL-2 = test system: SK-MEL-2
SNB-75 = test system: SNB-75
SW-620 = test system: SW-620
A498 = test system: A498

## OC(c1ccccc1)(c1ccccc1)c1nccc2ccccc12
786-0
  GI50: 55 µM (inactive)
A549
  GI50: 36.9 µM (inactive)
ACHN
  GI50: 37.6 µM (inactive)
BT-549
  GI50: 14.3 µM (inactive)
CAKI-1
  GI50: 20.1 µM (inactive)
CCRF-CEM
  GI50: 23.6 µM (inactive)
COLO 205
  GI50: 28.1 µM (inactive)
DU-145
  GI50: 41.7 µM (inactive)
EKVX
  GI50: 20.7 µM (inactive)
HCT-116
  GI50: 27.9 µM (inactive)
HCT-15
  GI50: 37.3 µM
HL-60
  GI50: 32.3 µM (inactive)
HOP-62
  GI50: 18.9 µM (inactive)
HT-29
  GI50: 26.8 µM (inactive)
Hs-578T
  GI50: 28.5 µM (inactive)
IGROV-1
  GI50: 40 µM (inactive)
K562
  GI50: > 10 µM (inactive)
KM12
  GI50: 35.9 µM (inactive)
LOX IMVI
  GI50: 17.6 µM (inactive)
M14
  GI50: 20.8 µM (inactive)
MCF7
  GI50: 35.2 µM (inactive)
MDA-MB-231
  GI50: 37.7 µM (inactive)
MDA-MB-435
  GI50: 30.8 µM (inactive)
MDA-N
  GI50: 30.1 µM (inactive)
MOLT-4
  GI50: 16.7 µM (inactive)
Malme-3M
  GI50: 30 µM (inactive)
NCI-H23
  GI50: 20.8 µM (inactive)
NCI-H460
  GI50: 17.3 µM (inactive)
NCI-H522
  GI50: 16.7 µM (inactive)
NCI/ADR-RES
  GI50: 34.6 µM (inactive)
OVCAR-3
  GI50: 17.2 µM (inactive)
OVCAR-4
  GI50: 31.6 µM (inactive)
OVCAR-5
  GI50: 31.7 µM (inactive)
OVCAR-8
  GI50: 37.8 µM (inactive)
PC-3
  GI50: 22.2 µM (inactive)
RPMI-8226
  GI50: 38.3 µM (inactive)
SF-268
  GI50: 44.2 µM (inactive)
SF-295
  GI50: 15.8 µM (inactive)
SK-MEL-28
  GI50: 22.6 µM (inactive)
SK-MEL-5
  GI50: 14.1 µM (inactive)
SK-OV-3
  GI50: 22.5 µM (inactive)
SN12C
  GI50: 44.5 µM (inactive)
SNB-19
  GI50: 27.9 µM (inactive)
SR
  GI50: 37.8 µM (inactive)
T47D
  GI50: 27.3 µM (inactive)
TK-10
  GI50: 12.9 µM (inactive)
U-251
  GI50: 29.3 µM (inactive)
UACC-257
  GI50: 31 µM (inactive)
UACC-62
  GI50: 21.5 µM (inactive)
UO-31
  GI50: 17.8 µM (inactive)

## CCOC(=O)CCCn1nnc(C(=O)OCC)c1C(=O)OCC
786-0
  GI50: > 100 µM (inactive)
A549
  GI50: > 100 µM (inactive)
ACHN
  GI50: > 100 µM (inactive)
BT-549
  GI50: > 100 µM (inactive)
CAKI-1
  GI50: > 100 µM (inactive)
CCRF-CEM
  GI50: > 100 µM (inactive)
COLO 205
  GI50: > 100 µM (inactive)
DU-145
  GI50: > 100 µM (inactive)
EKVX
  GI50: > 100 µM (inactive)
HCC 2998
  GI50: > 100 µM (inactive)
HCT-116
  GI50: > 100 µM (inactive)
HCT-15
  GI50: > 100 µM
HOP-62
  GI50: > 100 µM (inactive)
HOP-92
  GI50: > 100 µM (inactive)
HT-29
  GI50: > 100 µM (inactive)
Hs-578T
  GI50: > 100 µM (inactive)
IGROV-1
  GI50: > 100 µM (inactive)
KM12
  GI50: > 100 µM (inactive)
LOX IMVI
  GI50: > 100 µM (inactive)
MCF7
  GI50: > 100 µM (inactive)
MDA-MB-231
  GI50: > 100 µM (inactive)
MDA-MB-435
  GI50: > 100 µM (inactive)
MDA-N
  GI50: > 100 µM (inactive)
MOLT-4
  GI50: > 100 µM (inactive)
Malme-3M
  GI50: > 100 µM (inactive)
NCI-H226
  GI50: > 100 µM (inactive)
NCI-H23
  GI50: > 100 µM (inactive)
NCI-H460
  GI50: > 100 µM (inactive)
NCI/ADR-RES
  GI50: > 100 µM (inactive)
OVCAR-4
  GI50: > 100 µM (inactive)
OVCAR-8
  GI50: > 100 µM (inactive)
PC-3
  GI50: > 100 µM (inactive)
RXF 393
  GI50: > 100 µM (inactive)
SF-268
  GI50: > 100 µM (inactive)
SF-295
  GI50: > 100 µM (inactive)
SF-539
  GI50: > 100 µM (inactive)
SK-MEL-28
  GI50: > 100 µM (inactive)
SK-MEL-2
  GI50: > 100 µM (inactive)
SK-MEL-5
  GI50: > 100 µM (inactive)
SN12C
  GI50: > 100 µM (inactive)
SNB-19
  GI50: > 100 µM (inactive)
SNB-75
  GI50: > 100 µM (inactive)
SR
  GI50: > 100 µM (inactive)
SW-620
  GI50: > 100 µM (inactive)
T47D
  GI50: > 100 µM (inactive)
TK-10
  GI50: > 100 µM (inactive)
U-251
  GI50: > 100 µM (inactive)
UACC-257
  GI50: > 100 µM (inactive)
UACC-62
  GI50: > 100 µM (inactive)
UO-31
  GI50: > 100 µM (inactive)

## NNC(=O)c1ccccc1NC(=O)/C(=C/c1ccccc1)NC(=O)c1ccccc1
786-0
  GI50: > 100 µM (inactive)
A498
  GI50: > 100 µM (inactive)
A549
  GI50: > 100 µM (inactive)
ACHN
  GI50: > 100 µM (inactive)
BT-549
  GI50: 60.4 µM (inactive)
CAKI-1
  GI50: > 100 µM (inactive)
CCRF-CEM
  GI50: 43.6 µM (inactive)
COLO 205
  GI50: > 100 µM (inactive)
DU-145
  GI50: > 100 µM (inactive)
EKVX
  GI50: > 100 µM (inactive)
HCC 2998
  GI50: > 100 µM (inactive)
HCT-116
  GI50: 88.1 µM (inactive)
HCT-15
  GI50: 46.7 µM
HL-60
  GI50: 76.9 µM (inactive)
HOP-62
  GI50: 49.1 µM (inactive)
HOP-92
  GI50: > 100 µM (inactive)
HT-29
  GI50: > 100 µM (inactive)
Hs-578T
  GI50: 54.1 µM (inactive)
IGROV-1
  GI50: 68.1 µM (inactive)
K562
  GI50: > 100 µM (inactive)
KM12
  GI50: 27.8 µM (inactive)
LOX IMVI
  GI50: 68.1 µM (inactive)
M14
  GI50: 81.1 µM (inactive)
MCF7
  GI50: > 100 µM (inactive)
MDA-MB-231
  GI50: 47.9 µM (inactive)
MDA-MB-435
  GI50: 54.3 µM (inactive)
MDA-N
  GI50: 72.4 µM (inactive)
MOLT-4
  GI50: > 100 µM (inactive)
Malme-3M
  GI50: > 100 µM (inactive)
NCI-H226
  GI50: > 100 µM (inactive)
NCI-H23
  GI50: > 100 µM (inactive)
NCI-H460
  GI50: 80 µM (inactive)
NCI-H522
  GI50: > 100 µM (inactive)
NCI/ADR-RES
  GI50: 56.8 µM (inactive)
OVCAR-3
  GI50: > 100 µM (inactive)
OVCAR-4
  GI50: > 100 µM (inactive)
OVCAR-5
  GI50: > 100 µM (inactive)
OVCAR-8
  GI50: > 100 µM (inactive)
PC-3
  GI50: > 100 µM (inactive)
RPMI-8226
  GI50: > 100 µM (inactive)
RXF 393
  GI50: > 100 µM (inactive)
SF-268
  GI50: > 100 µM (inactive)
SF-295
  GI50: > 100 µM (inactive)
SF-539
  GI50: > 100 µM (inactive)
SK-MEL-28
  GI50: > 100 µM (inactive)
SK-MEL-2
  GI50: > 100 µM (inactive)
SK-MEL-5
  GI50: > 100 µM (inactive)
SK-OV-3
  GI50: > 100 µM (inactive)
SN12C
  GI50: > 100 µM (inactive)
SNB-19
  GI50: 43 µM (inactive)
SNB-75
  GI50: 70.1 µM (inactive)
SW-620
  GI50: > 100 µM (inactive)
T47D
  GI50: > 100 µM (inactive)
TK-10
  GI50: > 100 µM (inactive)
U-251
  GI50: 58.6 µM (inactive)
UACC-257
  GI50: 71.6 µM (inactive)
UACC-62
  GI50: > 100 µM (inactive)
UO-31
  GI50: 65.3 µM (inactive)
